The text below walks through data of patent publication US20140037685A1 (priority 2012, published 2014).

One assay relates to macrophages. The assay can be described thus: Confocal microscopy of lysosome rupture (fluorescent dextran) and plasma membrane integrity. It is filed as cell-based, mouse. As to the method:
(§1) FIG. 5A-5C. Lysosome rupture precedes cell death by alum and LLOMe, but not pyroptosis inducers. (A) Confocal microscopy of lysosome rupture in macrophages treated with […], 2.5 mM LLOMe, or 15 μM nigericin in the absence or presence of 100 μM CA-074-Me. The cells were stained with Hoechst (blue), 20 MW FITC-Dextran (green), CellMask Orange (red), TO-PRO-3 (white). 2D-fluorescent intensity plots of FITC-dextran staining of representative cells derived from alum, LLOMe, and nigericin-treated cells. Flow cytometry analysis of LLOMe and LT-treated cells. BALB/c-derived macrophages were exposed to 2.5 mM LLOMe (B) or 500 ng/ml LT (C) and lysosome and membrane integrity were measured using LysoTracker and PI at different time points using flow cytometry.
Cathepsin-dependent lysosome rupture correlates with degradation of inflammatory proteins. […] Lysosome-disrupting agents caused caspase-1-independent cell death and broad protein degradation, while pyroptosis inducers caused caspase-1-dependent cell death and targeted IL-1β secretion. In order to directly investigate the role of lysosome rupture in Nlrp3 activation, two complementary methods were used to analyze lysosome integrity in macrophages challenged with both lysosome-destabilizing agents and potassium-efflux inducers. First, lysosomal integrity was measured by labeling vesicles in the endolysosomal pathway with fluorescent dextran. […] Intriguingly, no plasma membrane impairment (indicative of necrotic cell death) was detectable at this time point, but was observed only 6 hours post alum exposure (FIG. 5A). […] LLOMe destabilized lysosomes within 30 min, without impairment of plasma membranes. A loss of plasma membrane integrity was observed only after 60 min of LLOMe exposure, resulting in dextran release from these cells (FIG. 5A).

The subject of assay [1] is Nlrp3. The assay can be described thus: IL-1β release into macrophage supernatants by ELISA. The format is cell-based, mouse. Particulars: for Effect of inhibitor on IL-1β secretion/release by all inducers tested: inducers alum, LLOMe, ATP, nigericin, 40 μM Boc-D-CMK or 100 μM CA-074-Me. As to the method: (§2) FIG. 1A-1B. Alum and LLOMe are poor inducers of inflammasome-associated cytokines. […] Macrophages were then exposed to increasing concentrations of alum, LLOMe, ATP, or nigericin for 4 hours, or alum for 6 hours, in the presence or absence of the 40 μM Boc-D-CMK or 100 μM CA-074-Me. IL-1β release was assessed by ELISA (A), and cell death was determined by CytotoxOne LDH activity assay (B) from supernatants. All PI measurements were taken in triplicate from representative experiment. FIG. 2. Alum and LLOMe cause depletion of caspase-1 and NLR-associated cytokines. […] Lysates were probed for pro-caspase-1, IL-18, and IL-1β, and supernatants were probed for IL-1β by immunoblotting. Data is representative of 3 experiments.
FIG. 6A-6D. LPS triggers strong production of Th1 and Th2-associated IgG subtypes. IgG1 (A) and IgG2c (B) production in C57BL/6 mice 3 weeks after subcutaneous challenge with increasing amounts of LPS. (C) A combination of LPS and ATP triggers a strong IL-1β response in vitro and in vivo. Primary C57BL/6 macrophages were treated with 250 ng/ml LPS or PBS for 2 hours, followed by to 5 mM ATP in the presence or absence of the 40 μM Boc-D-CMK. IL-1β release was assessed by ELISA from supernatants. […] IL-1β production in the intraperitoneal lavage was determined by ELISA 30 min after ATP/PBS challenge.
Cell death assays and ELISAs. Necrosis was assessed by two methods: LDH release assays and propidium iodide (PI) exclusion. […] Fluorescence was measured using a Victor 2 plate reader from Perkin Elmer. LDH release was determined using the CytotoxOne kit from Promega, according to the manufacturer's instructions. […] The enzymatic assay was developed until signal was obtained from a positive control (300 μM hydrogen peroxide) and the reaction was stopped and measured on a Victor 2 plate reader. IL-1β Ready-Set-Go ELISA kits were purchased from eBioscience and were performed according to manufacturer's recommendations. IL-1β concentration was determined at 1:1 and 1:10 to ensure linear range. […] ELISAs were read on a Victor 2 plate reader from Perkin Elmer. […]
For orientation: ELISA stands for enzyme-linked immunosorbent assay.

For assay [2], the system named is C57BL/6 macrophages. The assay can be described thus: Increasing CA-074-Me concentrations in LLOMe- or nigericin-challenged macrophages (PI exclusion, immunoblot). It is filed as cell-based, mouse. A general note: In western blotting, separated proteins are transferred to a membrane and probed.
Assay [3] has as its system pro-caspase-1, IL-18, and IL-1β. The format is cell-based, mouse.
Assay [4] deals with bone marrow-derived murine macrophages. The assay can be described thus: Necrotic cell death (LDH release / propidium iodide exclusion) in macrophages. The format is cell-based, mouse. Here is the method:
as §2
Cell death assays and ELISAs. Necrosis was assessed by two methods: LDH release assays and propidium iodide (PI) exclusion. PI exclusion assays were performed in a 96-well flat-bottom plate using phenol-red-free DMEM and added to wells to a final concentration 30 μM 10-min before the specified time point. Fluorescence was measured using a Victor 2 plate reader from Perkin Elmer. LDH release was determined using the CytotoxOne kit from Promega, according to the manufacturer's instructions. […] The enzymatic assay was developed until signal was obtained from a positive control (300 μM hydrogen peroxide) and the reaction was stopped and measured on a Victor 2 plate reader. IL-1β Ready-Set-Go ELISA kits were purchased from eBioscience and were performed according to manufacturer's recommendations. IL-1β concentration was determined at 1:1 and 1:10 to ensure linear range. […] ELISAs were read on a Victor 2 plate reader from Perkin Elmer.
Lysosome-disrupting agents induce potent cell death but poor IL-1β release. […] Towards this, bone marrow-derived murine macrophages were challenged with both lysosome disrupting and pyroptosis-inducing agents and measured the amount of IL-1β and LDH released into the supernatant as complementary read-outs for Nlrp3 activation. […]

The test system of assay [5] is C57BL/6 macrophages. The assay can be described thus: 2D-DIGE of the cellular proteome of treated macrophages. Particulars: LPS-primed; 2.5 mM LLOMe or nigericin for 90 minutes. The format is cell-based, mouse. An excerpt: FIG. 10. 2D-DIGE gel of proteins isolated from untreated, nigericin- and LLOMe-treated macrophages. […] Protein lysates from control, nigericin, and LLOMe treated cells were isolated, and subsequently labeled with Cy2, Cy3 and Cy5, respectively, and separated on a 2D-DIGE gel.
Broad protein degradation mediated by LLOMe—As lysosomal proteases are highly promiscuous, it was reasoned that alum- and LL-mediated lysosomal release of proteolytic proteins may not just degrade Nlrp3-associated proteins, but may also trigger degradation of a broad range of cytosolic proteins, and might go beyond the degradation of inflammatory proteins reported here. To examine effects of LLOMe on the cellular proteome, macrophages were challenged with these compounds and generated lysates. 2D-DIGE was used to determine the extent of damage inflicted in macrophages exposed to the lysosome-disrupting agent, LLOMe. […] These findings further highlight the different impact of lysosome-destabilizing agents and pyroptosis inducers on the cellular proteome on a macro-level.

For assay [6], the system named is BALB/c-derived macrophages. The assay can be described thus: Flow cytometry of lysosome and membrane integrity (LysoTracker and PI). It is filed as cell-based, mouse. As to the method:
as §1
To quantify these findings, lysosomal integrity was also analyzed by flow cytometry with the lysosomal pH-indicator LysoTracker and the vital stain propidium iodide (FIG. 5B and C). […] Intriguingly, protein degradation was concurrent with a loss of lysosome integrity 30 to 45 min after LLOMe exposure, and 4-6 hours after alum exposure (FIGS. 5A and 5B).
On the technique in general: In flow cytometry, cells or beads pass a laser one at a time.

The test system of the next assay is C57BL/6 mice. The assay can be described thus: IgG1 and IgG2c production after immunization of mice. The format is in vivo, mouse. The note with it: immunized C57BL/6 mice; LPS 3 weeks after subcutaneous challenge. Here is the method: (§3) FIG. 6A-6D. LPS triggers strong production of Th1 and Th2-associated IgG subtypes. IgG1 (A) and IgG2c (B) production in C57BL/6 mice 3 weeks after subcutaneous challenge with increasing amounts of LPS. (C) A combination of LPS and ATP triggers a strong IL-1β response in vitro and in vivo. Primary C57BL/6 macrophages were treated with 250 ng/ml LPS or PBS for 2 hours, followed by to 5 mM ATP in the presence or absence of the 40 μM Boc-D-CMK. IL-1β release was assessed by ELISA from supernatants. (D) C57BL/6 mice were i.p. primed with 1 ug LPS or PBS for 2 hours, followed by i.p. challenge with 100 mM ATP or PBS. IL-1β production in the intraperitoneal lavage was determined by ELISA 30 min after ATP/PBS challenge.
It was sought to determine if this difference correlated with the observed difference in in vivo IL-1β activation. To test this hypothesis, C57BL/6 mice were immunized with alum, LLOMe, and LPS.

Assay [7] has as its system Nlrp3. The assay can be described thus: IL-1β and LDH in intraperitoneal lavage after i.p. challenge. Particulars: C57BL/6 mice, agent injected intraperitoneally (LPS: high concentrations), no ATP. It is filed as in vivo, mouse. Here is the method: as §3
FIG. 11. Similar in vitro and in vivo profiles of LLOMe and LPS/ATP-treated macrophages. C57BL/6 mice were i.p. primed with 1 μg LPS or PBS for 2 hours, followed by i.p. challenge with 500 μl of PBS containing 100 mM ATP, 2 mM LLOMe, or PBS only. IL-1β production and LDH activity was determined from the intraperitoneal lavage by ELISA 30 min after challenge.
Prototypical Nlrp3 inducers trigger a strong IL-1β in vivo and production of Th1-specific antibodies in vivo. While the substantial difference in Nlrp3-signalling in vitro is shown, it was further chosen to investigate the ability of lysosome-disrupting agents and pyroptosis inducer to activate Nlrp3 in vivo. […]

[8] abbreviates: LPS-primed macrophages, 40 μM Boc-D-CMK, LDH assay.

Entries after “also recorded” stand apart in the source; their conditions may differ. A value given as a limit tells only on which side of the number the result lay.

Take `CCCNC(=O)[C@H]1O[C@@H]1C(=O)N[C@H](C(=O)N1CCC[C@H]1C(=O)OC)[C@@H](C)CC` [CA-074-Me]: the “Effect of inhibitor on lysosomal release of dextran from alum and LLOMe-treated macrophages” value with macrophages (100 μM CA-074-Me) is recorded as “blocked”. Also, the “Effect of inhibitor on IL-1β secretion/release by all inducers tested” value in the assay with Nlrp3 [1] is on record as “blocked”. The “Effect of increasing inhibitor concentrations on cell death and drop in inflammatory proteins in LLOMe-treated macrophages” value with C57BL/6 macrophages [2] (2.5 mM LLOMe, LPS-primed) is “blocked both, cell death and the drop in inflammatory proteins”. For the same molecule, the “Effect of inhibitor (at concentrations that blocked cell death) on release of processed IL-1β by Nlrp3 inducers” value in the assay on C57BL/6 macrophages [2] (nigericin (and ATP), LPS-primed) is “prevented the release of processed IL-1β”. Moreover, in assay [3], the “Effect of inhibitor on alum and LLOMe-mediated drop/degradation of proinflammatory proteins” value was “prevented the drop; also recorded: blocked”. The “Effect of inhibitor on necrotic cell death mediated by all agents/inducers tested” value in [4] (alum, LLOMe, ATP, nigericin, 100 μM CA-074-Me) is given as “blocked necrosis”.

Turning to `COC(=O)[C@H](CC(C)C)NC(=O)[C@@H](N)CC(C)C` [LLOMe, Leu-Leu-OMe], the “Degradation of cellular proteins (2D-DIGE)” value with C57BL/6 macrophages [5] is “broad degradation”. In the assay with macrophages (2.5 mM LLOMe), the “Time at which loss of plasma membrane integrity was observed” value is 60 min and the “Time to destabilized lysosomes, without impairment of plasma membranes” value is listed as at most 30 min. Also, in [6] (2.5 mM LLOMe, LysoTracker), the “Time to complete loss of lysosome integrity” value was at most 30 min. Also, the “Time at which necrotic cell death was observed” value in [6] (2.5 mM LLOMe, PI) was 60 to 90 min. Also, in assay [6] (after LLOMe exposure), the “Time of protein degradation concurrent with loss of lysosome integrity” value was 30 to 45 min. Moreover, the IL-1β release result in the assay on Nlrp3 [1] (LPS-primed (250 ng/ml, 2 hours) murine macrophages challenged with the inducer, ELISA of supernatants) is “only minimal”. Also, in the assay on C57BL/6 mice, the “IgG1 / Th2 response” value is “polarized IgG1” and the “IgG2c response (Th1)” value is on record as “little induction”. Moreover, in assay [3], the “Cellular pro-caspase-1 levels” value is on record as “significant depletion”; the “Cytosolic levels of IL-18 and IL-1β” value is listed as “dramatic decrease”; the “Mature caspase-1 (p20) indicative of caspase-1 activation” value is listed as “No mature caspase-1 (p20)”; the “Processing of pro-caspase-1 (p45) into p10 and p20” value is “substantial depletion of p45 without generating the p20 or p10 subunits”. In addition, the “Release of mature IL-1β into the supernatant (immunoblot)” value in [3] was “no mature IL-1β”. Also, in the assay on Nlrp3 [7], the “IL-1β release in vivo” value is listed as “poor release” and the “LDH release in vivo” value is on record as “significant release”.

In the case of `CO[C@@H]1C[C@@H](C[C@H]2CC[C@H](C)[C@H]([C@@H](C)C(=O)O)O2)O[C@]2(O[C@](C)([C@H]3CC[C@@](C)([C@@H]4O[C@@H]([C@H]5O[C@@](O)(CO)[C@H](C)C[C@@H]5C)C[C@@H]4C)O3)C[C@H]2C)[C@@H]1C` [nigericin, Nigericin], the “Degradation of cellular proteins (2D-DIGE)” value in the assay with C57BL/6 macrophages [5] is “did not trigger any apparent degradation”. The “Timing of lysosome impairment relative to cell death” value in the assay on macrophages (nigericin-treated cells (FIG. 5A)) is “occurred only after cell death induction”. The “Caspase-1 activation and Nlrp3 signaling: mature IL-1β in the supernatant” value in the assay with C57BL/6 macrophages [2] (LPS-primed C57BL/6 macrophages (FIG. 4B)) is “triggered caspase-1 activation and Nlrp3 signaling”. In addition, in assay [3], the “Processing of pro-caspase-1 (p45) into p10 and p20” value is listed as “minimal decrease of p45 with a notable increase of p20 or p10”.

Regarding Boc-D-CMK, the “Effect of inhibitor on IL-1β secretion/release by all inducers tested” value in the assay with Nlrp3 [1] is listed as “blocked”. For the same molecule, in assay [4] (setting [8]), the “Effect of inhibitor on alum and LLOMe-induced necrotic cell death” value was “no impact”; the “Effect of inhibitor on cell death mediated by ATP and nigericin” value was “prevented”.
